{"source": "patent US12433861B2", "about": "“Compositions and methods for treating reperfusion injury or hemorrhage after recanalization therapy” (GNT Pharma Co., Ltd., priority 2020, dated 2025)", "key": {"[1]": {"test_system": "acute ischemic stroke patients", "settings": "cited from earlier work"}, "healthy volunteers": {"test_system": "healthy volunteers", "settings": "cited from earlier work"}, "ischemic stroke patients": {"test_system": "ischemic stroke patients", "settings": "cited from earlier work"}, "adult rats": {"test_system": "adult rats", "experiment": "Abnormal behavior in adult rats after single dose", "settings": "for % of rats showing abnormal behavior: Abnormal body position lying on side / % of rats showing abnormal behavior: Ataxia / % of rats showing abnormal behavior: Clenched paws / % of rats showing abnormal behavior: Decreased activity / % of rats showing abnormal behavior: Increased salivation / % of rats showing abnormal behavior: Repetitive jaw chewing / Number of rats showing abnormal behavior: Abnormal body position lying on side / Number of rats showing abnormal behavior: Ataxia / Number of rats showing abnormal behavior: Clenched paws / Number of rats showing abnormal behavior: Decreased activity / Number of rats showing abnormal behavior: Increased salivation / Number of rats showing abnormal behavior: Repetitive jaw chewing: 8 rats"}, "[2]": {"settings": "ischemic stroke patients, selfotel (n = 281)"}}, "note": "“Also recorded” adds a separate entry of the source.", "data": [{"compound": "rt-PA: recombinant tissue plasminogen activator, intravenous thrombolytic drug", "values": [{"measurement": "increase of intracranial hemorrhagic complication", "setting": "[1]; intravenous administration, acute ischemic stroke", "value": "~6.4", "unit": "%"}, {"measurement": "cerebral arterial recanalization", "setting": "[1]; intravenous, depending upon size and types of the occluded vessel", "value": "4-32%"}]}, {"compound": "CCc1cccc(N(C)C(N)=Nc2cccc3ccccc23)c1", "note": "[aptiganel]", "values": [{"measurement": "Drug-induced side effect: Agitation", "setting": "healthy volunteers; Phase 1, 94 healthy volunteers", "value": "yes"}, {"measurement": "Drug-induced side effect: Catatonia", "setting": "healthy volunteers; Phase 1, 94 healthy volunteers", "value": "yes"}, {"measurement": "Drug-induced side effect: Hallucination", "setting": "healthy volunteers; Phase 1, 94 healthy volunteers", "value": "yes"}, {"measurement": "Drug-induced side effect: Paranoia", "setting": "healthy volunteers; Phase 1, 94 healthy volunteers", "value": "yes"}, {"measurement": "side effects / psychotic symptoms in healthy humans", "setting": "healthy volunteers; healthy volunteers (phase 1 study for 94)", "value": "caused hallucinations, paranoia, catatonia, euphoria, disinhibition, and psychomotor retardation; also recorded: psychotic symptoms such as hallucinations, paranoia, and catatonia"}]}, {"compound": "O=C(O)[C@@H]1C[C@H](CP(=O)(O)O)CCN1", "note": "(racemic) [selfotel]", "values": [{"measurement": "adverse effects in stroke patients", "setting": "ischemic stroke patients; 1 mg/kg", "value": "showed hallucinations, paranoia, agitation, confusion, and delirium"}, {"measurement": "% of subjects showing abnormal behavior: Agitation", "setting": "ischemic stroke patients; [2]", "value": 36, "unit": "%"}, {"measurement": "% of subjects showing abnormal behavior: Confusion", "setting": "ischemic stroke patients; [2]", "value": 16, "unit": "%"}, {"measurement": "% of subjects showing abnormal behavior: Hallucination", "setting": "ischemic stroke patients; [2]", "value": 21, "unit": "%"}, {"measurement": "% of subjects showing abnormal behavior: Stupor", "setting": "ischemic stroke patients; [2]", "value": 4.3, "unit": "%"}, {"measurement": "Number of subjects showing abnormal behavior: Agitation", "setting": "ischemic stroke patients; [2]", "value": 101}, {"measurement": "Number of subjects showing abnormal behavior: Confusion", "setting": "ischemic stroke patients; [2]", "value": 46}, {"measurement": "Number of subjects showing abnormal behavior: Hallucination", "setting": "ischemic stroke patients; [2]", "value": 59}, {"measurement": "Number of subjects showing abnormal behavior: Stupor", "setting": "ischemic stroke patients; [2]", "value": 12}, {"measurement": "Subjects showing abnormal behavior: Delirium (yes/no)", "setting": "ischemic stroke patients; [2]", "value": "yes"}, {"measurement": "Subjects showing abnormal behavior: Paranoia (yes/no)", "setting": "ischemic stroke patients; [2]", "value": "yes"}, {"measurement": "psychotic symptoms", "setting": "ischemic stroke patients; some of 281 ischemic stroke patients", "value": "revealed psychotic symptoms such as hallucination, paranoia, and delirium"}]}, {"compound": "C[C@]12N[C@H](Cc3ccccc31)c1ccccc12", "note": "[MK-801]", "values": [{"measurement": "% of rats showing abnormal behavior: Abnormal body position lying on side", "setting": "adult rats; 1 mg/kg (IP), female", "value": 25, "unit": "%"}, {"measurement": "% of rats showing abnormal behavior: Ataxia", "setting": "adult rats; 1 mg/kg (IP), female", "value": 75, "unit": "%"}, {"measurement": "% of rats showing abnormal behavior: Clenched paws", "setting": "adult rats; 1 mg/kg (IP), female", "value": 88, "unit": "%"}, {"measurement": "% of rats showing abnormal behavior: Decreased activity", "setting": "adult rats; 1 mg/kg (IP), female", "value": 100, "unit": "%"}, {"measurement": "% of rats showing abnormal behavior: Increased salivation", "setting": "adult rats; 1 mg/kg (IP), female", "value": 25, "unit": "%"}, {"measurement": "% of rats showing abnormal behavior: Repetitive jaw chewing", "setting": "adult rats; 1 mg/kg (IP), female", "value": 50, "unit": "%"}, {"measurement": "Number of rats showing abnormal behavior: Abnormal body position lying on side", "setting": "adult rats; 1 mg/kg (IP), female", "value": 2}, {"measurement": "Number of rats showing abnormal behavior: Ataxia", "setting": "adult rats; 1 mg/kg (IP), female", "value": 6}, {"measurement": "Number of rats showing abnormal behavior: Clenched paws", "setting": "adult rats; 1 mg/kg (IP), female", "value": 7}, {"measurement": "Number of rats showing abnormal behavior: Decreased activity", "setting": "adult rats; 1 mg/kg (IP), female", "value": 8}, {"measurement": "Number of rats showing abnormal behavior: Increased salivation", "setting": "adult rats; 1 mg/kg (IP), female", "value": 2}, {"measurement": "Number of rats showing abnormal behavior: Repetitive jaw chewing", "setting": "adult rats; 1 mg/kg (IP), female", "value": 4}, {"measurement": "% of rats showing abnormal behavior: Abnormal body position lying on side", "setting": "adult rats; 10 mg/kg (IP), male", "value": 13, "unit": "%"}, {"measurement": "% of rats showing abnormal behavior: Ataxia", "setting": "adult rats; 10 mg/kg (IP), male", "value": 38, "unit": "%"}, {"measurement": "% of rats showing abnormal behavior: Clenched paws", "setting": "adult rats; 10 mg/kg (IP), male", "value": 50, "unit": "%"}, {"measurement": "% of rats showing abnormal behavior: Decreased activity", "setting": "adult rats; 10 mg/kg (IP), male", "value": 100, "unit": "%"}, {"measurement": "% of rats showing abnormal behavior: Increased salivation", "setting": "adult rats; 10 mg/kg (IP), male", "value": 50, "unit": "%"}, {"measurement": "% of rats showing abnormal behavior: Repetitive jaw chewing", "setting": "adult rats; 10 mg/kg (IP), male", "value": 38, "unit": "%"}, {"measurement": "Number of rats showing abnormal behavior: Abnormal body position lying on side", "setting": "adult rats; 10 mg/kg (IP), male", "value": 1}, {"measurement": "Number of rats showing abnormal behavior: Ataxia", "setting": "adult rats; 10 mg/kg (IP), male", "value": 3}, {"measurement": "Number of rats showing abnormal behavior: Clenched paws", "setting": "adult rats; 10 mg/kg (IP), male", "value": 5}, {"measurement": "Number of rats showing abnormal behavior: Decreased activity", "setting": "adult rats; 10 mg/kg (IP), male", "value": 4}, {"measurement": "Number of rats showing abnormal behavior: Increased salivation", "setting": "adult rats; 10 mg/kg (IP), male", "value": 5}, {"measurement": "Number of rats showing abnormal behavior: Repetitive jaw chewing", "setting": "adult rats; 10 mg/kg (IP), male", "value": 3}, {"measurement": "abnormal behaviors", "setting": "adult rats; male and female rats, 1 or 10 mg/kg (IP)", "value": "produced abnormal behaviors including ataxia and decreased activity"}]}]}
